pIC50: −log10 of the molar value.
Tests used:
[1] = molecular target: T1, WRN [UniPro: Q14191 (WRN_HUMAN), N500-C946] (Homo sapiens (Human), UniProt Q14191); test: WRN ATPase assay (ADP-Glo); format: biochemical; settings: WRN enzymatic activity assay
[2] = molecular target: T1, WRN [UniPro: Q14191 (WRN_HUMAN), N500-C946]; test: WRN unwinding assay (FORKF DNA, fluorescence); format: biochemical; settings: Table 14

T1 sequence (Q14191 500-946): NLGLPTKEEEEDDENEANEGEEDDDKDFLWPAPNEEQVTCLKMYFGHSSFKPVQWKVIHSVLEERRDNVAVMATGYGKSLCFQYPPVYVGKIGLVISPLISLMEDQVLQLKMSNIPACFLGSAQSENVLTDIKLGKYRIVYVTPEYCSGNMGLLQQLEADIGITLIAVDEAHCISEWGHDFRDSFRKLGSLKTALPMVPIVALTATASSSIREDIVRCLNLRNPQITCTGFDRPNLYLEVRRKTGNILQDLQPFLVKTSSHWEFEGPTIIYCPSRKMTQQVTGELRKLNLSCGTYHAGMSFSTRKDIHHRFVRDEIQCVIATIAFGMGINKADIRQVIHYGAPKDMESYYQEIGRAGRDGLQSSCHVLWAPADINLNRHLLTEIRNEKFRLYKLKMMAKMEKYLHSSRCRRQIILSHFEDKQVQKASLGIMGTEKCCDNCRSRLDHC

| SMILES | pIC50 [1] | pIC50 [2] |
| --- | --- | --- |
| CCc1c(N2CCN(S(=O)(=O)NC(=O)c3ccccc3)CC2)c(=O)n2nc(C3=CCOCC3)nc2n1CC(=O)Nc1ccc(C(F)(F)F)cc1Cl [Example 194, N-((4-(4-(2-((2-Chloro-4-(trifluoromethyl)phenyl)amino)-2-oxoethyl)-2-(3,6-dihydro-2H-pyran-4-yl)-5-ethyl-7-oxo-4,7-dihydro-[1,2,4]triazolo[1,5-a]pyrimidin-6-yl)piperazin-1-yl)sulfonyl)benzamide] | > 7.00 | > 7.00 |
| CCc1c(N2CCN(C(=O)c3ncc4ncsc4c3O)CC2)c(=O)n2nc(C3=CCOCC3)nc2n1CC(=O)Nc1ccc(C(F)(F)F)cc1Cl [Example 195, N-(2-Chloro-4-(trifluoromethyl)phenyl)-2-(2-(3,6-dihydro-2H-pyran-4-yl)-5-ethyl-6-(4-(7-hydroxythiazolo[4,5-c]pyridine-6-carbonyl)piperazin-1-yl)-7-oxo-[1,2,4]triazolo[1,5-a]pyrimidin-4(7H)-yl)acetamide] | > 7.00 | > 7.00 |
| CCc1c(N2CCN(C(=O)c3ncc4nc(Cl)sc4c3O)CC2)c(=O)n2nc(C3=CCOCC3)nc2n1CC(=O)Nc1ccc(C(F)(F)F)cc1Cl [Example 196, N-(2-Chloro-4-(trifluoromethyl)phenyl)-2-(6-(4-(2-chloro-7-hydroxythiazolo[4,5-c]pyridine-6-carbonyl)piperazin-1-yl)-2-(3,6-dihydro-2H-pyran-4-yl)-5-ethyl-7-oxo-[1,2,4]triazolo[1,5-a]pyrimidin-4(7H)-yl)acetamide] | > 7.00 | > 7.00 |
| CCc1c(N2CCN(C(=O)c3c(O)nn4c(Cl)cccc34)CC2)c(=O)n2nc(C3=CCOCC3)nc2n1CC(=O)Nc1ccc(C(F)(F)F)cc1Cl [Example 198, 2-(6-(4-(7-Chloro-2-hydroxypyrazolo[1,5-a]pyridine-3-carbonyl)piperazin-1-yl)-2-(3,6-dihydro-2H-pyran-4-yl)-5-ethyl-7-oxo-[1,2,4]triazolo[1,5-a]pyrimidin-4(7H)-yl)-N-(2-chloro-4-(trifluoromethyl)phenyl)acetamide] | > 7.00 | > 7.00 |
| CCc1c(N2CCN(C(=O)c3ncc4nc(Cl)sc4c3O)CC2)c(=O)n2nc(C3=CCOCC3)nc2n1CC(=O)Nc1ccc(C(F)(F)F)cc1F [Example 199, 2-(6-(4-(2-Chloro-7-hydroxythiazolo[4,5-c]pyridine-6-carbonyl)piperazin-1-yl)-2-(3,6-dihydro-2H-pyran-4-yl)-5-ethyl-7-oxo-[1,2,4]triazolo[1,5-a]pyrimidin-4(7H)-yl)-N-(2-fluoro-4-(trifluoromethyl)phenyl)acetamide] | > 7.00 | > 7.00 |
| CCc1c(N2CCN(C(=O)c3ccn4nccc4c3O)CC2)c(=O)n2nc(C3=CCOCC3)nc2n1CC(=O)Nc1ccc(C(F)(F)F)cc1Cl [Example 200, N-(2-Chloro-4-(trifluoromethyl)phenyl)-2-(2-(3,6-dihydro-2H-pyran-4-yl)-5-ethyl-6-(4-(4-hydroxypyrazolo[1,5-a]pyridine-5-carbonyl)piperazin-1-yl)-7-oxo-[1,2,4]triazolo[1,5-a]pyrimidin-4(7H)-yl)acetamide] | > 7.00 | > 7.00 |

Continued, values first:

| pIC50 [1] | pIC50 [2] | SMILES |
| --- | --- | --- |
| > 7.00 | > 7.00 | CCc1c(N2CCN(C(=O)CNC(=O)Nc3ccccc3C#N)CC2)c(=O)n2nc(C3=CCOCC3)nc2n1CC(=O)Nc1ccc(C(F)(F)F)cc1Cl [Example 187, N-(2-Chloro-4-(trifluoromethyl)phenyl)-2-(6-(4-(((2-cyanophenyl)carbamoyl)glycyl)piperazin-1-yl)-2-(3,6-dihydro-2H-pyran-4-yl)-5-ethyl-7-oxo-[1,2,4]triazolo[1,5-a]pyrimidin-4(7H)-yl)acetamide] |
| > 7.00 | > 7.00 | CCc1c(N2CCN(C(=O)CNC(=O)Nc3nccs3)CC2)c(=O)n2nc(C3=CCOCC3)nc2n1CC(=O)Nc1ccc(C(F)(F)F)cc1Cl [Example 188, N-(2-Chloro-4-(trifluoromethyl)phenyl)-2-(2-(3,6-dihydro-2H-pyran-4-yl)-5-ethyl-7-oxo-6-(4-((thiazol-2-ylcarbamoyl)glycyl)piperazin-1-yl)-[1,2,4]triazolo[1,5-a]pyrimidin-4(7H)-yl)acetamide] |
| > 7.00 | > 7.00 | CCc1c(N2CCN(C(=O)CNC(=O)N(C)Cc3ccccc3)CC2)c(=O)n2nc(C3=CCOCC3)nc2n1CC(=O)Nc1ccc(C(F)(F)F)cc1Cl [Example 189, 2-(6-(4-((Benzyl(methyl)carbamoyl)glycyl)piperazin-1-yl)-2-(3,6-dihydro-2H-pyran-4-yl)-5-ethyl-7-oxo-[1,2,4]triazolo[1,5-a]pyrimidin-4(7H)-yl)-N-(2-chloro-4-(trifluoromethyl)phenyl)acetamide] |
| > 7.00 | > 7.00 | CCc1c(N2CCN(C(=O)CNC(=O)NCC3CC3)CC2)c(=O)n2nc(C3=CCOCC3)nc2n1CC(=O)Nc1ccc(C(F)(F)F)cc1Cl [Example 190, N-(2-Chloro-4-(trifluoromethyl)phenyl)-2-(6-(4-(((cyclopropylmethyl)carbamoyl)glycyl)piperazin-1-yl)-2-(3,6-dihydro-2H-pyran-4-yl)-5-ethyl-7-oxo-[1,2,4]triazolo[1,5-a]pyrimidin-4(7H)-yl)acetamide] |
| > 7.00 | > 7.00 | CCc1c(N2CCN(C(=O)CNC(=O)NCc3ccccc3F)CC2)c(=O)n2nc(C3=CCOCC3)nc2n1CC(=O)Nc1ccc(C(F)(F)F)cc1Cl [Example 191, N-(2-Chloro-4-(trifluoromethyl)phenyl)-2-(2-(3,6-dihydro-2H-pyran-4-yl)-5-ethyl-6-(4-(((2-fluorobenzyl)carbamoyl)glycyl)piperazin-1-yl)-7-oxo-[1,2,4]triazolo[1,5-a]pyrimidin-4(7H)-yl)acetamide] |
| > 7.00 | > 7.00 | CCc1c(N2CCN(C(=O)CNC(=O)N3Cc4ccncc4C3)CC2)c(=O)n2nc(C3=CCOCC3)nc2n1CC(=O)Nc1ccc(C(F)(F)F)cc1Cl [Example 192, N-(2-(4-(4-(2-((2-Chloro-4-(trifluoromethyl)phenyl)amino)-2-oxoethyl)-2-(3,6-dihydro-2H-pyran-4-yl)-5-ethyl-7-oxo-4,7-dihydro-[1,2,4]triazolo[1,5-a]pyrimidin-6-yl)piperazin-1-yl)-2-oxoethyl)-1,3-dihydro-2H-pyrrolo[3,4-c]pyridine-2-carboxamide] |
| > 7.00 | > 7.00 | CCc1c(N2CCN(C(=O)CNC(=O)N3CCc4cccc(F)c43)CC2)c(=O)n2nc(C3=CCOCC3)nc2n1CC(=O)Nc1ccc(C(F)(F)F)cc1Cl [Example 193, N-(2-(4-(4-(2-((2-Chloro-4-(trifluoromethyl)phenyl)amino)-2-oxoethyl)-2-(3,6-dihydro-2H-pyran-4-yl)-5-ethyl-7-oxo-4,7-dihydro-[1,2,4]triazolo[1,5-a]pyrimidin-6-yl)piperazin-1-yl)-2-oxoethyl)-7-fluoroindoline-1-carboxamide] |
| > 7.00 | > 7.00 | CCc1c(N2CCN(C(=O)c3cc4sccc4[nH]c3=O)CC2)c(=O)n2nc(C3=CCOCC3)nc2n1CC(=O)Nc1ccc(C(F)(F)F)cc1Cl [Example 197, N-(2-Chloro-4-(trifluoromethyl)phenyl)-2-(2-(3,6-dihydro-2H-pyran-4-yl)-5-ethyl-7-oxo-6-(4-(5-oxo-4,5-dihydrothieno[3,2-b]pyridine-6-carbonyl)piperazin-1-yl)-[1,2,4]triazolo[1,5-a]pyrimidin-4(7H)-yl)acetamide] |

— US20260015358A1, “BICYCLIC DERIVATIVES, COMPOSITIONS AND USES THEREOF” (Danatlas Pharmaceuticals Co., Ltd., priority 2023, published 2026)
